According to patent publication US9890153B2, “Substituted 1H-pyrrolo [2, 3-b] pyridine and 1H-pyrazolo [3, 4-b] pyridine derivatives as salt inducible kinase 2 (SIK2) inhibitors” (Arrien Pharmaceuticals LLC, priority 2012, dated 2018):

Legend:
Type in all cases: biochemical
[1] = molecular target: SIK2 (QIK) (SEQ ID NO: 11) (Homo sapiens, UniProt Q9H0K1); experiment: SIK2 kinase assay (radiometric, 10 μM ATP); conditions: read-out: SIK2 (QIK) (SEQ ID NO: 11) kinase inhibition result
Experimental: Procedure: Enzyme was incubated with substrate peptide in reaction buffer in the presence and absence of test compounds or Staurosporine. All additions were done on ice, followed by the addition of ATP mix. Wells were uniformly mixed using an Eppendorff plate shaker and incubated at 30° C. for 20 min, and stopped by the addition of 5 μL of 3% phosphoric acid. Volume was increased to 100 μL by adding 0.8% phosphoric acid which was then transferred to PC filter mats (Millipore), pre-equilibrated with 70% ethanol and water. Plates were washed thrice with 100 μL 0.8% phosphoric acid and dried for an hour at 60° C.

[2] = molecular target: T1, SIK3 (QSK) (SEQ ID NO: 24) (Homo sapiens, UniProt Q9Y2K2); experiment: Protein kinase assay, SIK3; conditions: read-out: SIK3 (QSK) (SEQ ID NO: 24) kinase inhibition result
T1 construct: Reaction Biology Corporation (assay service, HotSpot panel)
T1 sequence (Q9Y2K2 whole entry): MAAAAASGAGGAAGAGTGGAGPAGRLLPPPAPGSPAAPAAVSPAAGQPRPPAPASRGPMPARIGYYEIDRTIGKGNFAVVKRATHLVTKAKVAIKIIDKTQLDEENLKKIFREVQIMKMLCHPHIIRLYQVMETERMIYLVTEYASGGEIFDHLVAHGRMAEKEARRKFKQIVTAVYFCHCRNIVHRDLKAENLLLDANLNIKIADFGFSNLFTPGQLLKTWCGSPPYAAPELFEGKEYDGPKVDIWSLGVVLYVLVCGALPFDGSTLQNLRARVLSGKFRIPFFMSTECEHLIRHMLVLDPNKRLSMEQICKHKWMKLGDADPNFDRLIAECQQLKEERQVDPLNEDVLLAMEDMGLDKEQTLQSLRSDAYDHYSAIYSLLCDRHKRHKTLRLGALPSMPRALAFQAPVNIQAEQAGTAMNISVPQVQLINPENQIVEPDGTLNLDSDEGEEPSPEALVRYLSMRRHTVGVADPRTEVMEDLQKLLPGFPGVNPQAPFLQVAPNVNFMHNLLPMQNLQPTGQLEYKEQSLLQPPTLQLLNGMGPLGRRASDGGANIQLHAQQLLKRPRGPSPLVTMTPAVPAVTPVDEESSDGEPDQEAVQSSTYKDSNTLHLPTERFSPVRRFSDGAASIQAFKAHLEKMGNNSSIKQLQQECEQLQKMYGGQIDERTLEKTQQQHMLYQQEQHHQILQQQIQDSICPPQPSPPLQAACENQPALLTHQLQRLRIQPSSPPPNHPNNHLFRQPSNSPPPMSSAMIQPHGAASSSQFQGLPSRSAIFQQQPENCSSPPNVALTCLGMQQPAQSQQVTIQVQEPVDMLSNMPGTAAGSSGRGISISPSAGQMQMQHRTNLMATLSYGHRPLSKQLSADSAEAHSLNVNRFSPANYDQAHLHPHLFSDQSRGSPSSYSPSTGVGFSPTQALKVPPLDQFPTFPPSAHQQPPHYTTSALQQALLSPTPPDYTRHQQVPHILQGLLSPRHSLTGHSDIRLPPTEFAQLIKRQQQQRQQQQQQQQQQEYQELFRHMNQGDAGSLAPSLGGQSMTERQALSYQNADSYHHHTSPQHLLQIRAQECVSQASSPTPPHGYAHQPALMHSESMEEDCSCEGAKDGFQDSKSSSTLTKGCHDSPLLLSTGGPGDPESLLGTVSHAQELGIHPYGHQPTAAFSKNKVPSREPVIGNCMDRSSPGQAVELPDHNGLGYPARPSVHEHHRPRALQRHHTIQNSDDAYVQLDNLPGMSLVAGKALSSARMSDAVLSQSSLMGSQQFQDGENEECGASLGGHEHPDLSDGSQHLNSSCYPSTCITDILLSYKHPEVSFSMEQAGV
Experimental: (§1) Briefly, specific kinase/substrate pairs along with required cofactors were prepared in reaction buffer; 20 mM Hepes (pH 7.5), 10 mMmgCl2, 1 mM EGTA, 0.02% Brij35, 0.02 mg/ml BSA, 0.1 mM Na3VO4, 2 mM DTT, 1% DMSO. Compounds were delivered into the reaction, followed ˜20 min later by addition of a mixture of ATP (Sigma) and 33P ATP (PerkinElmer) to a final concentration of 10 μM. […] IC50 values and curve fits were obtained using Prism (GraphPad Software). Kinome tree representations were prepared using Kinome Mapper (http://www.reactionbiology.com/apps/kinome/mapper/LaunchKinome.htm).

SIK1 (SEQ ID NO: 10) = molecular target: T2, SIK1 (SEQ ID NO: 10) (Homo sapiens, UniProt P57059); experiment: Protein kinase assay, SIK1; conditions: read-out: SIK1 (SEQ ID NO: 10) kinase inhibition result
T2 construct: Reaction Biology Corporation (assay service, HotSpot panel)
T2 sequence (P57059 whole entry): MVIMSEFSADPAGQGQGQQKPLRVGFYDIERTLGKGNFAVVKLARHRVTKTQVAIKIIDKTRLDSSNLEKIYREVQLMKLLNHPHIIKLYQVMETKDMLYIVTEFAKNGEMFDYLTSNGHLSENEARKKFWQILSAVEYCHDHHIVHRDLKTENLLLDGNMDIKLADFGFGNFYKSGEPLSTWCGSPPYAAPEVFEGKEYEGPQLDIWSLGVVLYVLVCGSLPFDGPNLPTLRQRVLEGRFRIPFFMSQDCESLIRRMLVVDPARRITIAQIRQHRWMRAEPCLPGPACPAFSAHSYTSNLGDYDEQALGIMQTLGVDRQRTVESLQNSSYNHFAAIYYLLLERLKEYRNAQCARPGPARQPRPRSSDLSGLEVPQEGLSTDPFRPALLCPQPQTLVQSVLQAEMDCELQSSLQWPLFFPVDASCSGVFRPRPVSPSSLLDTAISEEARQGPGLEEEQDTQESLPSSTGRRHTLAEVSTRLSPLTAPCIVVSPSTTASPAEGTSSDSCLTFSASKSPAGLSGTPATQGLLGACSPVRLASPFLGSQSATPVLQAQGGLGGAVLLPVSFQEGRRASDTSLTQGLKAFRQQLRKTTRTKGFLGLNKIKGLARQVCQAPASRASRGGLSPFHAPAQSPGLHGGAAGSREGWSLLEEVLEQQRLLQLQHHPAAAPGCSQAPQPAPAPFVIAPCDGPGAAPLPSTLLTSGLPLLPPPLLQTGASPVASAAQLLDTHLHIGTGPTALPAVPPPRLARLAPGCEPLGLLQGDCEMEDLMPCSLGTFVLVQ
Experimental: as §1

Chain of SIK2 (QIK) (SEQ ID NO: 11) (Q9H0K1 whole entry): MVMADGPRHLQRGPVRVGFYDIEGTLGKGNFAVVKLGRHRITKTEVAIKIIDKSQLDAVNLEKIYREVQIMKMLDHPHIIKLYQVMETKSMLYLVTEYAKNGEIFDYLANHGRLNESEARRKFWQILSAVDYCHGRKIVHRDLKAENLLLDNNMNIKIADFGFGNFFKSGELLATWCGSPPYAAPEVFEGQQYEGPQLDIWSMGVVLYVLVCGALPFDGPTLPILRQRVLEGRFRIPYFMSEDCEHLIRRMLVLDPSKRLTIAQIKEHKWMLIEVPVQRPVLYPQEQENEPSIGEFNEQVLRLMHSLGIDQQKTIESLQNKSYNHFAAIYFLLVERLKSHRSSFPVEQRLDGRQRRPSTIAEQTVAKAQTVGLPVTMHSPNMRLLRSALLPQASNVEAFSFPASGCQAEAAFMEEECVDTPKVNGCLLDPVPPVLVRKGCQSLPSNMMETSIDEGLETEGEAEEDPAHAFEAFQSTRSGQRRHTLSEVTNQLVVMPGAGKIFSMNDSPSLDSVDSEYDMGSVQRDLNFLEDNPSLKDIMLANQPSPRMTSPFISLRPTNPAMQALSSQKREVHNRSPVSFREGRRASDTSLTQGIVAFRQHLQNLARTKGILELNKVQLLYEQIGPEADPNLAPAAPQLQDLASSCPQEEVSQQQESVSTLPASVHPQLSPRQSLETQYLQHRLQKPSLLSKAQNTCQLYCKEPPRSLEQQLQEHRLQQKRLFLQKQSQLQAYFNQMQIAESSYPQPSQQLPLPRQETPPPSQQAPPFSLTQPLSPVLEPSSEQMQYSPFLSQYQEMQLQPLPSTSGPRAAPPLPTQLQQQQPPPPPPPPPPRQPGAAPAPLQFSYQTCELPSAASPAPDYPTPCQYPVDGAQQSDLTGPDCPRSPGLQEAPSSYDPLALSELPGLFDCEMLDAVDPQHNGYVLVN

Row | Compound | IC50 [1] [nM] | IC50 [2] [nM] | IC50 (SIK1 (SEQ ID NO: 10)) [nM]
1 | CCN(CC)S(=O)(=O)c1ccccc1-c1c[nH]c2nccc(-c3ccsc3)c12 [Example 95, N,N-diethyl-2-(4-(thiophen-3-yl)-1H-pyrrolo[2,3-b]pyridin-3-yl)benzenesulfonamide] | > 1000 | > 1000 | > 1000
2 | O=S(=O)(c1cccc(-c2c[nH]c3nccc(-c4ccsc4)c23)c1)N1CCCC1 [Example 97, 3-(3-(pyrrolidin-1-ylsulfonyl)phenyl)-4-(thiophen-3-yl)-1H-pyrrolo[2,3-b]pyridine] | > 1000 | > 1000 | > 1000
3 | COc1c(F)cc(F)cc1-c1c[nH]c2ncc(-c3cccc(S(=O)(=O)N4CCCC4)c3)cc12 [Example 183, 3-(3,5-difluoro-2-methoxyphenyl)-5-(3-(pyrrolidin-1-ylsulfonyl)phenyl)-1H-pyrrolo[2,3-b]pyridine] | < 100 | > 100 | > 1000
4 | O=C(c1c(F)cccc1F)c1c[nH]c2ncc(-c3cnn(C4CCNCC4)c3)cc12 [Example 210, (2,6-difluorophenyl)(5-(1-(piperidin-4-yl)-1H-pyrazol-4-yl)-1H-pyrrolo[2,3-b]pyridin-3-yl)methanone] | < 100 | < 100 | > 100
5 | COc1c(F)cccc1-c1c[nH]c2ncc(-c3cccc(S(=O)(=O)N4CCCC4)c3)cc12 [Example 182, 3-(3-fluoro-2-methoxyphenyl)-5-(3-(pyrrolidin-1-ylsulfonyl)phenyl)-1H-pyrrolo[2,3-b]pyridine] | < 100 | > 100 | > 1000
6 | COc1c(F)cc(F)cc1-c1c[nH]c2ncc(-n3cc(N4CCN(S(C)(=O)=O)CC4)cn3)cc12 [Example 217, 3-(3,5-difluoro-2-methoxyphenyl)-5-(4-(4-(methylsulfonyl)piperazin-1-yl)-1H-pyrazol-1-yl)-1H-pyrrolo[2,3-b]pyridine] | < 100 | < 100 | > 100

Other lines, results leading:

Row | IC50 [1] [nM] | IC50 [2] [nM] | IC50 (SIK1 (SEQ ID NO: 10)) [nM] | Compound
7 | < 100 | > 100 | > 1000 | Fc1cccc(-c2c[nH]c3ncc(-c4ccc(CN5CCOCC5)s4)cc23)c1Cl [Example 133]
8 | < 100 | < 100 | > 100 | FC1(F)Oc2ccc(-c3c[nH]c4ncc(-c5ccc(CN6CCCCC6)s5)cc34)cc2O1 [Example 204, 3-(2,2-difluorobenzo[d][1,3]dioxol-5-yl)-5-(5-(piperidin-1-ylmethyl)thiophen-2-yl)-1H-pyrrolo[2,3-b]pyridine]
9 | < 100 | > 1000 | > 1000 | FC1(F)Oc2ccc(-c3c[nH]c4ncc(-c5ccc(CN6CCCC6)s5)cc34)cc2O1 [Example 203, 3-(2,2-difluorobenzo[d][1,3]dioxol-5-yl)-5-(5-(pyrrolidin-1-ylmethyl)thiophen-2-yl)-1H-pyrrolo[2,3-b]pyridine]
10 | < 100 | < 100 | > 100 | FC1(F)Oc2ccc(-c3c[nH]c4ncc(-c5csc(N6CCOCC6)n5)cc34)cc2O1 [Example 205, 4-(4-(3-(2,2-difluorobenzo[d][1,3]dioxol-5-yl)-1H-pyrrolo[2,3-b]pyridin-5-yl)thiazol-2-yl)morpholine]
11 | < 100 | < 100 | > 100 | FC1(F)Oc2ccc(-c3c[nH]c4ncc(-c5cnn(C6CCNCC6)c5)cc34)cc2O1 [Example 206, 3-(2,2-difluorobenzo[d][1,3]dioxol-5-yl)-5-(1-(piperidin-4-yl)-1H-pyrazol-4-yl)-1H-pyrrolo[2,3-b]pyridine]
12 | < 100 | > 100 | > 1000 | COc1c(F)cc(F)cc1-c1c[nH]c2ncc(-c3ccc(CN4CCCCC4)s3)cc12 [Example 178, 3-(3,5-difluoro-2-methoxyphenyl)-5-(5-(piperidin-1-ylmethyl)thiophen-2-yl)-1H-pyrrolo[2,3-b]pyridine]
